# Assay results published in the supplement of paper PMC10307832.
# Legend:
# Assay in all cases: relative viability (nuclei count vs DMSO), 5 days (fraction); higher = more cells survive
# Pazopanib + Alpelisib = compound: Cc1ccc(Nc2nccc(N(C)c3ccc4c(C)n(C)nc4c3)n2)cc1S(N)(=O)=O [Pazopanib] + Cc1nc(NC(=O)N2CCC[C@H]2C(N)=O)sc1-c1ccnc(C(C)(C)C(F)(F)F)c1 [Alpelisib] (partner 2 µM)
# How it was run: (§1)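 For relative viability, nuclei counts in treated wells were divided by those in vehicle wells. Lung cancer cell lines had been pin-tool dosed in 1536-well plates the day after seeding and cultured for 5 days, then fixed and stained in one step (final 0.05% Triton X-100, 1% formaldehyde, 1 ug/ml Hoechst) and imaged at 4×. Doses were one drug alone or a fixed anchor-drug dose plus five library-drug doses (not always all listed) in √10 steps, and values are duplicate-plate medians.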
# Ponatinib + Palbociclib = compound: Cc1ccc(C(=O)Nc2ccc(CN3CCN(C)CC3)c(C(F)(F)F)c2)cc1C#Cc1cnc2cccnn12 [Ponatinib] + CC(=O)c1c(C)c2cnc(Nc3ccc(N4CCNCC4)cn3)nc2n(C2CCCC2)c1=O [Palbociclib] (partner 0.5 µM)
# How it was run: as §1
# Pazopanib + Decitabine = compound: Cc1ccc(Nc2nccc(N(C)c3ccc4c(C)n(C)nc4c3)n2)cc1S(N)(=O)=O [Pazopanib] + Nc1ncn([C@H]2C[C@H](O)[C@@H](CO)O2)c(=O)n1 [Decitabine] (partner 2 µM)
# How it was run: as §1
# Ponatinib + Pemetrexed = compound: Cc1ccc(C(=O)Nc2ccc(CN3CCN(C)CC3)c(C(F)(F)F)c2)cc1C#Cc1cnc2cccnn12 [Ponatinib] + Nc1nc2[nH]cc(CCc3ccc(C(=O)N[C@@H](CCC(=O)O)C(=O)O)cc3)c2c(=O)[nH]1 [Pemetrexed] (partner 0.2 µM)
# How it was run: as §1
Cell Line,relative viability (Pazopanib + Alpelisib; first compound 0.01 µM),relative viability (Pazopanib + Alpelisib; first compound 0.03162 µM),relative viability (Pazopanib + Alpelisib; first compound 0.1 µM),relative viability (Pazopanib + Alpelisib; first compound 0.3162 µM),relative viability (Pazopanib + Alpelisib; first compound 1 µM),relative viability (Ponatinib + Palbociclib; first compound 0.002 µM),relative viability (Ponatinib + Palbociclib; first compound 0.006325 µM),relative viability (Ponatinib + Palbociclib; first compound 0.06325 µM),relative viability (Ponatinib + Palbociclib; first compound 0.2 µM),relative viability (Pazopanib + Decitabine; first compound 0.01 µM),relative viability (Pazopanib + Decitabine; first compound 0.03162 µM),relative viability (Pazopanib + Decitabine; first compound 0.1 µM),relative viability (Pazopanib + Decitabine; first compound 0.3162 µM),relative viability (Pazopanib + Decitabine; first compound 1 µM),relative viability (Ponatinib + Pemetrexed; first compound 0.002 µM),relative viability (Ponatinib + Pemetrexed; first compound 0.006325 µM),relative viability (Ponatinib + Pemetrexed; first compound 0.06325 µM),relative viability (Ponatinib + Pemetrexed; first compound 0.2 µM)
NCI-H358,1.06,0.892,0.91,0.864,0.922,0.137,0.129,0.148,0.136,0.217,0.22,0.219,0.25,0.276,0.168,0.162,0.189,0.174
NCI-H520,,1.04,0.884,0.873,0.816,0.215,0.207,0.172,0.16,0.48,0.471,0.569,0.509,0.572,0.59,0.636,0.556,0.407
HCC-15,0.788,0.931,0.885,0.909,0.986,0.675,0.752,0.798,0.672,0.53,0.712,0.572,0.59,0.827,0.223,0.217,0.226,0.224
LCLC-103H,0.782,0.823,1.03,0.973,1.06,0.464,0.517,0.491,0.431,0.653,0.708,0.735,0.682,0.679,0.446,0.5,0.483,0.416
NCI-H460,0.432,0.529,0.52,0.531,0.6,0.218,0.212,0.223,0.177,0.561,0.513,0.551,0.488,0.552,0.06,0.062,0.0629,0.0632
EPLC-272H,0.734,0.966,1,0.991,0.804,0.292,0.34,0.376,0.332,,0.336,0.353,0.337,0.369,0.397,0.359,0.388,0.408
